In ChEMBL document CHEMBL1135276, “Novel estimation of lipophilic behaviour of polychlorinated biphenyls” (Bioorg Med Chem Lett, 2002):

assay: Partition coefficient (logP); conditions: octanol/water

Row | Compound | logP
1 | Clc1ccc(Cl)c(-c2cc(Cl)c(Cl)cc2Cl)c1 | 6.49
2 | Clc1ccc(-c2c(Cl)cc(Cl)c(Cl)c2Cl)c(Cl)c1Cl | 6.99
3 | Clc1cc(-c2cc(Cl)c(Cl)c(Cl)c2)cc(Cl)c1Cl | 7.55
4 | Clc1c(Cl)c(Cl)c(-c2ccccc2)c(Cl)c1Cl | 6.52
5 | Clc1ccc(Cl)c(-c2ccccc2Cl)c1 | 5.6
6 | Clc1ccc(-c2ccc(Cl)cc2)cc1 | 5.58
7 | Clc1ccccc1-c1ccccc1Cl | 4.73
8 | Clc1cc(Cl)c(Cl)c(-c2c(Cl)c(Cl)cc(Cl)c2Cl)c1Cl | 7.15
9 | Clc1cc(Cl)c(-c2cc(Cl)c(Cl)cc2Cl)cc1Cl [2,2',4,4',5,5'-HEXACHLOROBIPHENYL] | 6.8
